Experimental data from PubChem BioAssay AID488803 (Sanford-Burnham Center for Chemical Genomics, 2010).
Calls of active or inactive are those of the source.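 How the source made its calls: active means mean IC50 below 10 µM; inactive means the rest.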

Molecular target: Apelin receptor (Homo sapiens) (UniProt P35414)
Assay: apelin receptor inhibitor analogs – cell-based, luminescence, set 2, SAR follow-up (AID 488803)
Conditions: CHO-K1 APJ PathHunter beta-arrestin, antagonist

Chain of Apelin receptor (Homo sapiens) (P35414 whole entry, looked up): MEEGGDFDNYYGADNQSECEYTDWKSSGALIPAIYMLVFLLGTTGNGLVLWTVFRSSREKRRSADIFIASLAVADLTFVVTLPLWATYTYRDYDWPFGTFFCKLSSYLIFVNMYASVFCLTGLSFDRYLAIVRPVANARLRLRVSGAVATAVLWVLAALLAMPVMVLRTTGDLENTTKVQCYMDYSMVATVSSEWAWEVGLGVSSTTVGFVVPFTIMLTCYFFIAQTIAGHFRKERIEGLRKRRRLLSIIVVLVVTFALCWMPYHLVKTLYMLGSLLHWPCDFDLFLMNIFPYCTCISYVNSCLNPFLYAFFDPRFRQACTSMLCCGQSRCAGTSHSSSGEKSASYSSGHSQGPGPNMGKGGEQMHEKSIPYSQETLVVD

Row | SMILES | IC50
1 | Cc1ccnc(SCc2cc(=O)c(OC(=O)c3ccc(C)c([N+](=O)[O-])c3)co2)n1 | 4.7 µM
2 | Cc1ccnc(SCc2cc(=O)c(OC(=O)c3ccccc3Cl)co2)n1 | inactive
3 | COc1ccc(NC2C(=O)Nc3ccccc32)cc1 (stereo unspecified) | > 79 µM (inactive)
4 | N#Cc1ccc(C(=O)Oc2coc(CSc3ncccn3)cc2=O)cc1 | 6.59 µM
5 | O=C(Oc1coc(CSc2ncccn2)cc1=O)c1cccc([N+](=O)[O-])c1 | inactive
6 | CC1(C)CC2(CC(c3ccccc3Cl)c3ccc(OC(=O)c4ccccc4)cc3O2)NC(=S)N1 (stereo unspecified) | inactive
7 | Cc1ccnc(SCc2cc(=O)c(O)co2)n1 | > 79 µM (inactive)
8 | O=C(Oc1coc(CSc2ncccn2)cc1=O)c1ccccc1 | > 79 µM (inactive)
9 | C=CCSC1=NC2(CC(c3ccccc3)c3c(C)cc(O)cc3O2)CC(C)(C)N1 (stereo unspecified) | > 79 µM (inactive)
10 | CSc1cccc(N=C2C(=O)Nc3ccccc32)c1 | 9.84 µM
11 | Cc1ccnc(SCc2cc(=O)c(OC(=O)c3cc(Cl)ccc3[N+](=O)[O-])co2)n1 | inactive
12 | Cc1ccnc(SCc2cc(=O)c(OC(=O)c3ccc(C(F)(F)F)cc3)co2)n1 | inactive
13 | CC1(C)CC2(CC(c3ccccc3Cl)c3ccc(O)cc3O2)NC(=O)N1 (stereo unspecified) | > 79 µM (inactive)
14 | CC1(C)CC2(CC(c3ccc(Cl)cc3)c3ccc(O)cc3O2)NC(=S)N1 (stereo unspecified) | inactive
15 | Cc1ccnc(SCc2cc(=O)c(OC(=O)c3ccc(OC(F)(F)F)cc3)co2)n1 | > 79 µM (inactive)
16 | COc1ccccc1NC(=O)CN1C(=O)C(=O)c2ccccc21 | inactive
17 | CC(C)(C)c1ccc(C(=O)Oc2coc(CSc3ncccn3)cc2=O)cc1 | > 79 µM (inactive)
18 | Cc1ccnc(SCc2cc(=O)c(OC(=O)c3ccco3)co2)n1 | > 79 µM (inactive)
19 | Cc1ccccc1NCC(=O)c1ccc(Cl)cc1 | 1.42 µM
20 | Cc1cccc(C2CC3(CC(C)(C)NC(=S)N3)Oc3cc(O)cc(C)c32)c1 (stereo unspecified) | inactive
21 | Cc1ccc(C(=O)Oc2coc(CSc3ncccn3)cc2=O)cc1[N+](=O)[O-] | 7.25 µM
22 | O=C(Oc1coc(CSc2ncccn2)cc1=O)c1ccc(S(=O)(=O)N2CCOCC2)cc1 | > 79 µM (inactive)

Row | SMILES | IC50
23 | Cc1cc(C)nc(SCc2cc(=O)c(OC(=O)c3cccc([N+](=O)[O-])c3C)co2)n1 | > 79 µM (inactive)
24 | Cc1cc(C)nc(SCc2cccc(O)c2)n1 | > 79 µM (inactive)
25 | O=C(Oc1coc(CSc2ccccc2)cc1=O)c1ccc(Cl)c([N+](=O)[O-])c1 | 9.61 µM
26 | Cc1c(O)ccc2c1OC1(CC2c2ccccc2Cl)CC(C)(C)NC(=S)N1 (stereo unspecified) | > 79 µM (inactive)
27 | Cc1ccnc(SCc2cc(=O)c(OC(=O)c3ccc(Cl)cc3)co2)n1 | > 79 µM (inactive)
28 | COc1ccc(C2CC3(CC(C)(C)NC(=S)N3)Oc3cc(O)cc(C)c32)cc1 (stereo unspecified) | inactive
29 | O=c1cc(CCl)occ1O | > 79 µM (inactive)
30 | Cc1ccnc(SCc2cccc(O)c2)n1 | > 79 µM (inactive)
31 | Cc1ccnc(SCc2cc(=O)c(OC(=O)c3cccs3)co2)n1 | > 79 µM (inactive)
32 | COc1ccccc1NCC(O)c1ccc(Cl)cc1 (stereo unspecified) | > 79 µM (inactive)
33 | Cc1cc(C)nc(SCc2cc(=O)c(OC(=O)c3cc(Cl)ccc3[N+](=O)[O-])co2)n1 | > 79 µM (inactive)
34 | Cc1ccccc1C1CC2(CC(C)(C)NC(=S)N2)Oc2cc(O)c(Cl)cc21 (stereo unspecified) | inactive
35 | CCCCOc1ccc(C(=O)Oc2coc(CSc3ncccn3)cc2=O)cc1 | > 79 µM (inactive)
36 | O=C(Oc1coc(CSc2ncccn2)cc1=O)c1cc([N+](=O)[O-])ccc1Cl | inactive
37 | C=CCOc1ccc(COc2ccccc2)cc1 | > 79 µM (inactive)
38 | Cc1ccnc(SCc2cc(=O)c(OC(=O)c3cccc([N+](=O)[O-])c3)co2)n1 | inactive
39 | COc1ccc(C(=O)Oc2coc(CSc3nccc(C)n3)cc2=O)cc1 | > 79 µM (inactive)
40 | Cc1cc(C)nc(SCc2cc(=O)c(O)co2)n1 | > 79 µM (inactive)
41 | Cc1ccc(C(=O)Oc2coc(CSc3ncccn3)cc2=O)cc1 | > 79 µM (inactive)
42 | CSC1=NC2(CC(c3ccccc3)c3cc(Cl)c(O)cc3O2)CC(C)(C)N1 (stereo unspecified) | > 79 µM (inactive)
43 | Cc1cccc(C2CC3(CC(C)(C)NC(=O)N3)Oc3cc(O)c(Cl)cc32)c1 (stereo unspecified) | > 79 µM (inactive)
44 | Cc1ccc(C)c(NCC(O)c2ccc(Cl)cc2)c1 (stereo unspecified) | > 79 µM (inactive)

Row | SMILES | IC50
45 | O=C(COC(=O)c1cccnc1)c1ccc(Cl)cc1 | > 79 µM (inactive)
46 | Cc1c(C(=O)Oc2coc(CSc3ncccn3)cc2=O)cccc1[N+](=O)[O-] | inactive
47 | Cc1ccc(NCC(O)c2ccccc2)cc1 (stereo unspecified) | > 79 µM (inactive)
48 | Cc1c(O)ccc2c1OC1(CC2c2ccccc2Cl)CC(C)(C)NC(=O)N1 (stereo unspecified) | > 79 µM (inactive)
49 | COc1cc(CSc2nc(C)cc(C)n2)ccc1O | > 79 µM (inactive)
50 | C=CCSC1=NC2(CC(c3ccc(C)cc3)c3c(C)cc(OC(C)=O)cc3O2)CC(C)(C)N1 (stereo unspecified) | inactive
51 | C=CCOc1cccc(CSc2nc(C)cc(C)n2)c1 | > 79 µM (inactive)
52 | CC(C)OC(=O)CN1C(=O)C(=O)c2ccccc21 | > 79 µM (inactive)
53 | Cc1cc(C)nc(SCc2ccc(OC(=O)c3ccccc3)c(Cl)c2)n1 | > 79 µM (inactive)
54 | Cc1ccccc1NCC(O)c1ccc(Cl)cc1 (stereo unspecified) | > 79 µM (inactive)
55 | Cc1cccc(C(=O)Oc2coc(CSc3nccc(C)n3)cc2=O)c1 | > 79 µM (inactive)
56 | O=c1cc(CSc2ccccc2)occ1O | > 79 µM (inactive)
57 | COc1cccc(C(=O)Oc2coc(CSc3nccc(C)n3)cc2=O)c1 | > 79 µM (inactive)
58 | Cc1ccnc(SCc2cc(=O)c(OC(=O)c3ccc(C#N)cc3)co2)n1 | 8.51 µM
59 | CCOc1ccc(C(=O)Oc2coc(CSc3ncccn3)cc2=O)cc1 | > 79 µM (inactive)
60 | Cc1ccnc(SCc2cc(=O)c(OC(=O)c3ccc(F)cc3)co2)n1 | > 79 µM (inactive)
61 | O=C(Oc1coc(CSc2ncccn2)cc1=O)c1ccc(Cl)cc1 | inactive
62 | C=CCOc1cccc(CSc2ncccn2)c1 | > 79 µM (inactive)
63 | C=CCOc1ccc(CSc2nc(C)cc(C)n2)cc1OC | > 79 µM (inactive)
64 | Cc1cccc(C2CC3(CC(C)(C)NC(=S)N3)Oc3cc(O)c(Cl)cc32)c1 (stereo unspecified) | inactive
65 | Cc1cc(C)nc(SCc2cc(=O)c(OC(=O)c3cc([N+](=O)[O-])ccc3Cl)co2)n1 | inactive
66 | O=C(Oc1coc(CSc2ncccn2)cc1=O)c1cc(Cl)ccc1[N+](=O)[O-] | > 79 µM (inactive)

The next lines start with the values.

Row | IC50 | SMILES
67 | inactive | Cc1ccnc(SCc2cc(=O)c(OC(=O)c3cc([N+](=O)[O-])ccc3Cl)co2)n1
68 | > 79 µM (inactive) | COc1ccc(C(=O)Oc2coc(CSc3ncccn3)cc2=O)cc1
69 | > 79 µM (inactive) | O=C(O)CN1C(=O)C(=O)c2ccccc21
70 | > 79 µM (inactive) | Cc1ccnc(SCc2cc(=O)c(OC(=O)c3cccc(Cl)c3)co2)n1
71 | > 79 µM (inactive) | CC(=O)Oc1cc2c(cc1Cl)C(c1ccccc1Cl)CC1(CC(C)(C)NC(=S)N1)O2 (stereo unspecified)
72 | > 79 µM (inactive) | C=CCOc1cccc(CSc2nccc(C)n2)c1
73 | > 79 µM (inactive) | O=C(Oc1coc(CSc2ncccn2)cc1=O)c1ccc(S(=O)(=O)N2CCCC2)cc1
74 | > 79 µM (inactive) | CN(C)S(=O)(=O)c1ccc(C(=O)Oc2coc(CSc3ncccn3)cc2=O)cc1
75 | > 79 µM (inactive) | CC1(C)CC2(CC(c3ccc(F)cc3)c3ccc(O)cc3O2)NC(=S)N1 (stereo unspecified)
76 | > 79 µM (inactive) | O=C(Oc1coc(CSc2ncccn2)cc1=O)c1ccc(-c2ccccc2)cc1
77 | 1.7 µM | COc1ccccc1NCC(=O)c1ccc(Cl)cc1
78 | inactive | CC1(C)CC2(CC(c3ccccc3Cl)c3cc(Cl)c(OC(=O)C4CC4)cc3O2)NC(=S)N1 (stereo unspecified)
79 | > 79 µM (inactive) | C=CCOc1ccc(CSc2nccc(C)n2)cc1
80 | inactive | Cc1cc(C)nc(SCc2cc(=O)c(OC(=O)c3ccc(C)c([N+](=O)[O-])c3)co2)n1
81 | > 79 µM (inactive) | O=C(Oc1coc(CSc2ncccn2)cc1=O)c1ccc(F)cc1
82 | 3.21 µM | Cc1ccnc(S(=O)(=O)Cc2cc(=O)c(OC(=O)c3ccc(Cl)c([N+](=O)[O-])c3)co2)n1
83 | > 79 µM (inactive) | Cc1ccnc(SCc2cc(=O)c(OC(=O)c3ccc(S(=O)(=O)N4CCCC4)cc3)co2)n1
84 | > 79 µM (inactive) | Cc1cc(C)nc(SCc2cc(=O)c(OC(=O)c3ccc(S(=O)(=O)N(C)C)cc3)co2)n1

Row | IC50 | SMILES
85 | 6.88 µM | CC1(C)CC2(CC(c3ccccc3Cl)c3ccc(O)cc3O2)NC(=S)N1 (stereo unspecified)
86 | > 79 µM (inactive) | Cc1ccnc(SCc2cc(=O)c(OC(=O)c3ccccc3C)co2)n1
87 | 6.2 µM | O=C(Oc1coc(CSc2ncccn2)cc1=O)c1ccc(Cl)c([N+](=O)[O-])c1
88 | > 79 µM (inactive) | O=C(Oc1coc(CSc2ncccn2)cc1=O)c1ccc(S(=O)(=O)N2CCCCC2)cc1
89 | inactive | COc1ccc(C2CC3(CC(C)(C)NC(=S)N3)Oc3cc(OC(C)=O)cc(C)c32)cc1 (stereo unspecified)
90 | 4.32 µM | Cc1ccnc(SCc2cc(=O)c(OC(=O)c3ccc([N+](=O)[O-])cc3)co2)n1
91 | > 79 µM (inactive) | COc1cc(C(=O)Oc2coc(CSc3ncccn3)cc2=O)c([N+](=O)[O-])cc1OC
92 | inactive | O=C(Oc1coc(CSc2ncccn2)cc1=O)c1ccc(C(F)(F)F)cc1
93 | > 79 µM (inactive) | CCN(CC)S(=O)(=O)c1ccc(C(=O)Oc2coc(CSc3ncccn3)cc2=O)cc1
94 | > 79 µM (inactive) | Cc1ccc(C(=O)Oc2coc(CSc3ncccn3)cc2=O)cc1C
95 | inactive | O=C(Oc1coc(CSc2ncccn2)cc1=O)c1ccc(Br)cc1
96 | > 79 µM (inactive) | C=CCOc1ccc(CSc2nc(C)cc(C)n2)cc1Cl
97 | 5.45 µM | Cc1cc(C)nc(SCc2cc(=O)c(OC(=O)c3ccc(Cl)c([N+](=O)[O-])c3)co2)n1
98 | > 79 µM (inactive) | Cc1ccc(C(=O)Oc2coc(CSc3nccc(C)n3)cc2=O)cc1
99 | > 79 µM (inactive) | Cc1ccnc(SCc2cc(=O)c(OCc3ccccc3)co2)n1
100 | > 79 µM (inactive) | Cc1cc(C)nc(SCc2ccc(O)c(Cl)c2)n1
101 | > 79 µM (inactive) | O=c1cc(CSc2ncccn2)occ1O
